Assay results taken from patent US20240360178A1, “MACROCYCLIC IMMUNOMODULATORS” (Bristol-Myers Squibb Company, priority 2021, published 2024).
Positions of bridges follow the written chain, without caps; N, C: chain ends. Non-standard residues stand in square brackets, D forms with d. Residues, ends and D or L forms follow the SMILES beside them. ξ: configuration not given here. *: point of attachment. Tyr(3-NO2) = N[C@@H](Cc1ccc(O)c([N+](=O)[O-])c1)C(=O)O; Phe(4-COOH) = N[C@@H](Cc1ccc(C(=O)O)cc1)C(=O)O; Phe(4-CH2NH2) = NCc1ccc(C[C@H](N)C(=O)O)cc1; Bip = N[C@@H](Cc1ccc(-c2ccccc2)cc1)C(=O)O; Phe(3-CN) = N#Cc1cccc(C[C@H](N)C(=O)O)c1; Phe(3-Me) = Cc1cccc(C[C@H](N)C(=O)O)c1; Val(3-OH) = CC(C)(O)[C@H](N)C(=O)O; NMeF = CN[C@@H](Cc1ccccc1)C(=O)O; 3Pal = N[C@@H](Cc1cccnc1)C(=O)O; 4Pal = N[C@@H](Cc1ccncc1)C(=O)O; Cha = N[C@@H](CC1CCCCC1)C(=O)O; ξR = N=C(N)NCCCC(N)C(=O)O; Carboxymethyl = O=C(O)C*; NMeA = CN[C@@H](C)C(=O)O; Orn = NCCC[C@H](N)C(=O)O; Dab = NCC[C@H](N)C(=O)O; Nva = CCC[C@H](N)C(=O)O; Sar = CNCC(=O)O

target: T1, human PD-1 (Jurkat-PD-1 cells) / PE-labeled human PD-L1-Ig (Homo sapiens, UniProt Q15116); assay: Jurkat-PD-1 Cell Binding High-Content Screening Assay (CBA); Jurkat hPD1-PDL1 assay; settings: Jurkat cell line over-expressing human PD-1; PE-labeled PD-L1-Ig 20 nM final; compound incubated 2 hours at 37° C.; read-out: Jurkat HPD1-PDL1 IC50
T1 construct: expressed in transfected cells; host or cells: Jurkat cell line over-expressing human PD-1
T1 sequence (Q15116 25-288): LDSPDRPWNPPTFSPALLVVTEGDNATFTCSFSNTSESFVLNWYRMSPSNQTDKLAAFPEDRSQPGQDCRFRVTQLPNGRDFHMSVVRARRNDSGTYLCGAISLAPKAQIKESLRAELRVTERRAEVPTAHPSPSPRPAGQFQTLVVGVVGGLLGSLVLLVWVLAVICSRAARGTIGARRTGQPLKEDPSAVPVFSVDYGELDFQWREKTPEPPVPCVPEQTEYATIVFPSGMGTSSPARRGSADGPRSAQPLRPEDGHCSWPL
How it was run: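 Cell binding by imaging: Jurkat line stably over-expressing human PD-1, compound pre-exposure 2 h at 37° C, PE-conjugated PD-L1-Ig 20 nM final, medium DMEM containing 10% FCS.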

IC50	Structure (SMILES)
250 nM	CC(C)C[C@@H]1NC(=O)[C@H](Cc2c[nH]c3ccccc23)NC(=O)[C@H](CC(=O)O)NC(=O)[C@H](Cc2ccc(O)c([N+](=O)[O-])c2)NC(=O)[C@H](Cc2ccccc2)NC(=O)CSC[C@@H](C(=O)N[C@@H](C)C(N)=O)NC(=O)[C@H](CO)NC(=O)[C@H](C(C)C)NC(=O)[C@H](CC(C)C)NC(=O)[C@H](CC(N)=O)NC(=O)CN(C)C(=O)[C@H](C)N(C)C(=O)[C@H](C(C)C)NC(=O)[C@H](Cc2ccc(-c3ccccc3)cc2)NC1=O [Example 1087] ({CH2CO}-F[Tyr(3-NO2)]DWL[Bip]V[NMeA][Sar]NLVSCA-NH2; thioether N-14)
420 nM	CC(C)C[C@@H]1NC(=O)[C@H](Cc2c[nH]c3ccccc23)NC(=O)[C@H](CC(=O)O)NC(=O)[C@H](Cc2ccc(O)cc2)NC(=O)[C@H](Cc2ccccc2)NC(=O)CSC[C@@H](C(=O)N[C@@H](C)C(N)=O)NC(=O)[C@H](CO)NC(=O)[C@H](C(C)C)NC(=O)[C@H](CC(C)C)NC(=O)[C@H](CC(N)=O)NC(=O)[C@H]2CCCN2C(=O)[C@@H](CCCCN)NC(=O)[C@H](C(C)C)NC(=O)[C@H](Cc2ccc(-c3ccccc3)cc2)NC1=O [Example 1197] ({CH2CO}-FYDWL[Bip]V[dK][dP]NLVSCA-NH2; thioether N-14)
630 nM	CC(C)C[C@@H]1NC(=O)[C@H](CCCNC(=N)N)NC(=O)[C@H](Cc2ccccc2)N(C)C(=O)[C@H](CCCN)NC(=O)[C@H](CCCNC(=N)N)NC(=O)[C@H](Cc2ccc(-c3ccccc3)cc2)NC(=O)[C@H](C(C)C)NC(=O)[C@H](Cc2c[nH]c3ccccc23)NC(=O)[C@H](CC(=O)O)NC(=O)[C@H](Cc2ccc(O)cc2)NC(=O)[C@H](CC(N)=O)NC(=O)CSC[C@@H](C(=O)N[C@@H](C)C(N)=O)NC(=O)[C@H]([C@@H](C)O)NC(=O)[C@H](C(C)C)NC1=O [Example 1383] ({CH2CO}-NYDWV[Bip]R[Orn][NMeF]RLVTCA-NH2; thioether N-14)
20 nM	Cc1cccc(C[C@@H]2NC(=O)[C@H](CC(=O)O)NC(=O)[C@H](Cc3ccc(OCC(=O)O)cc3)NC(=O)[C@H](Cc3ccncc3)NC(=O)CSC[C@@H](C(=O)N[C@@H](CCN)C(N)=O)NC(=O)[C@H](CO)NC(=O)[C@H](C(C)(C)O)NC(=O)[C@H](CC3CCCCC3)NC(=O)[C@H](CCN)NC(=O)[C@H]3CCCN3C(=O)[C@H](C)N(C)C(=O)[C@H](C(C)C)NC(=O)[C@H](Cc3ccc(-c4ccccc4)cc3)NC(=O)[C@H](Cc3ccc(OCC(=O)O)cc3)NC2=O)c1 [Example 1184] ({CH2CO}-[4Pal]Y(Carboxymethyl)D[Phe(3-Me)]Y(Carboxymethyl)[Bip]V[NMeA][dP][Dab][Cha][Val(3-OH)]SC[Dab]-NH2; thioether N-14)
170 nM	CC(C)C[C@@H]1NC(=O)[C@H](CCCNC(=N)N)NC(=O)[C@H](Cc2ccccc2)N(C)C(=O)[C@H](C)N(C)C(=O)[C@H](CCCNC(=N)N)NC(=O)[C@H](Cc2ccc(-c3ccccc3)cc2)NC(=O)[C@H](C(C)C)NC(=O)[C@H](Cc2c[nH]c3ccccc23)NC(=O)[C@H](CC(=O)O)NC(=O)[C@H](Cc2ccccc2)NC(=O)[C@H](Cc2ccccc2)NC(=O)CSC[C@@H](C(=O)NCC(N)=O)NC(=O)[C@H](CO)NC(=O)[C@H](C(C)C)NC1=O [Example 1238] ({CH2CO}-FFDWV[Bip]R[NMeA][NMeF]RLVSCG-NH2; thioether N-14)
330 nM	CC(C)C[C@@H]1NC(=O)[C@H](Cc2c[nH]c3ccccc23)NC(=O)[C@H](CC(=O)O)NC(=O)[C@H](Cc2ccc(O)cc2)NC(=O)[C@H](Cc2ccccc2)NC(=O)CSC[C@@H](C(=O)NCC(N)=O)NC(=O)[C@H](CO)NC(=O)[C@H](C(C)C)NC(=O)[C@H](CC(C)C)NC(=O)[C@H](C(C)C)NC(=O)CN(C)C(=O)[C@H](C)N(C)C(=O)[C@H](CCCNC(=N)N)NC(=O)[C@H](Cc2ccc(-c3ccccc3)cc2)NC1=O [Example 1232] ({CH2CO}-FYDWL[Bip]R[NMeA][Sar]VLVSCG-NH2; thioether N-14)
280 nM	CC(C)C[C@@H]1NC(=O)[C@H](Cc2c[nH]c3ccccc23)NC(=O)[C@H](CC(=O)O)NC(=O)[C@H](Cc2ccc(O)cc2)NC(=O)[C@H](Cc2ccccc2)NC(=O)CSC[C@@H](C(=O)N[C@@H](C)C(N)=O)NC(=O)[C@H](CO)NC(=O)[C@H](C(C)C)NC(=O)[C@H](CC(C)C)NC(=O)[C@H](CC(N)=O)NC(=O)[C@H](Cc2ccccc2)N(C)C(=O)[C@H](C)N(C)C(=O)[C@H](CCCNC(=N)N)NC(=O)[C@H](Cc2ccc(-c3ccccc3)cc2)NC1=O [Example 1095] ({CH2CO}-FYDWL[Bip]R[NMeA][NMeF]NLVSCA-NH2; thioether N-14)

The remaining lines, values behind:

Structure (SMILES)	IC50
CC(C)C[C@@H]1NC(=O)[C@H](Cc2c[nH]c3ccccc23)NC(=O)[C@H](CC(=O)O)NC(=O)[C@H](Cc2ccc(C(=O)O)cc2)NC(=O)[C@H](Cc2ccccc2)NC(=O)CSC[C@@H](C(=O)N[C@@H](C)C(N)=O)NC(=O)[C@H](CO)NC(=O)[C@H](C(C)C)NC(=O)[C@H](CC(C)C)NC(=O)[C@H](CC(N)=O)NC(=O)[C@H]2CCCN2C(=O)[C@H](C)N(C)C(=O)[C@H](C(C)C)NC(=O)[C@H](Cc2ccc(-c3ccccc3)cc2)NC1=O [Example 1020] ({CH2CO}-F[Phe(4-COOH)]DWL[Bip]V[NMeA][dP]NLVSCA-NH2; thioether N-14)	40 nM
CC(C)C[C@@H]1NC(=O)[C@H](C)NC(=O)[C@H]2CCCN2C(=O)[C@H](C)N(C)C(=O)[C@H](CCC(=O)O)NC(=O)[C@H](Cc2ccc(-c3ccccc3)cc2)NC(=O)[C@H](CC(C)C)NC(=O)[C@H](Cc2c[nH]c3ccccc23)NC(=O)[C@H](CC(=O)O)NC(=O)[C@H](Cc2ccc(O)cc2)NC(=O)[C@H](Cc2ccccc2)NC(=O)CSC[C@@H](C(=O)N[C@@H](C)C(N)=O)NC(=O)[C@H](CO)NC(=O)[C@H](C(C)C)NC1=O [Example 1028] ({CH2CO}-FYDWL[Bip]E[NMeA][dP]ALVSCA-NH2; thioether N-14)	50 nM
CC(C)C[C@@H]1NC(=O)[C@H](Cc2c[nH]c3ccccc23)NC(=O)[C@H](CC(=O)O)NC(=O)[C@H](Cc2cccc(C#N)c2)NC(=O)[C@H](Cc2ccncc2)NC(=O)CSC[C@@H](C(=O)N[C@@H](CCN)C(N)=O)NC(=O)[C@H](CO)NC(=O)[C@H](C(C)(C)O)NC(=O)[C@H](CC2CCCCC2)NC(=O)[C@H](CCN)NC(=O)[C@H]2CCCN2C(=O)[C@H](C)N(C)C(=O)[C@H](C(C)C)NC(=O)[C@H](Cc2ccc(-c3ccccc3)cc2)NC1=O [Example 1183] ({CH2CO}-[4Pal][Phe(3-CN)]DWL[Bip]V[NMeA][dP][Dab][Cha][Val(3-OH)]SC[Dab]-NH2; thioether N-14)	40 nM
CC(C)C[C@@H]1NC(=O)[C@H](Cc2c[nH]c3ccccc23)NC(=O)[C@H](CC(=O)O)NC(=O)[C@H](Cc2ccc(O)cc2)NC(=O)[C@H](Cc2cccnc2)NC(=O)CSC[C@@H](C(=O)NCC(N)=O)NC(=O)[C@H](CO)NC(=O)[C@H](C(C)C)NC(=O)[C@H](CC(C)C)NC(=O)[C@H](CC(N)=O)NC(=O)CN(C)C(=O)[C@H](C)N(C)C(=O)[C@H](C(C)C)NC(=O)[C@H](Cc2ccc(-c3ccccc3)cc2)NC1=O [Example 1118] ({CH2CO}-[3Pal]YDWL[Bip]V[NMeA][Sar]NLVSCG-NH2; thioether N-14)	420 nM
CC(C)C[C@@H]1NC(=O)[C@H](CCCNC(=N)N)NC(=O)[C@H](Cc2ccccc2)N(C)C(=O)[C@H](C)N(C)C(=O)[C@H](CCCNC(=N)N)NC(=O)[C@H](Cc2ccc(-c3ccccc3)cc2)NC(=O)[C@H](C(C)C)NC(=O)[C@H](Cc2c[nH]c3ccccc23)NC(=O)[C@H](CC(=O)O)NC(=O)[C@H](Cc2ccc(O)cc2)NC(=O)[C@H](CC2CCCCC2)NC(=O)CSC[C@@H](C(=O)NCC(N)=O)NC(=O)[C@H](CO)NC(=O)[C@H](C(C)C)NC1=O [Example 1248] ({CH2CO}-[Cha]YDWV[Bip]R[NMeA][NMeF]RLVSCG-NH2; thioether N-14)	360 nM
CCC[C@H](NC(=O)[C@@H]1CSCC(=O)N[C@@H](Cc2ccccc2)C(=O)N[C@@H](Cc2ccc(O)cc2)C(=O)N[C@@H](CC(=O)O)C(=O)N[C@@H](Cc2c[nH]c3ccccc23)C(=O)N[C@@H](C(C)C)C(=O)N[C@@H](Cc2ccc(-c3ccccc3)cc2)C(=O)N[C@@H](CCCNC(=N)N)C(=O)N(C)[C@@H](C)C(=O)N(C)[C@@H](Cc2ccccc2)C(=O)N[C@@H](CCCNC(=N)N)C(=O)N[C@@H](CC(C)C)C(=O)N[C@@H](C(C)C)C(=O)N[C@@H](CO)C(=O)N1)C(N)=O [Example 1329] ({CH2CO}-FYDWV[Bip]R[NMeA][NMeF]RLVSC[Nva]-NH2; thioether N-14)	260 nM
CC(C)C[C@@H]1NC(=O)C(CCCNC(=N)N)NC(=O)[C@H](Cc2ccccc2)N(C)C(=O)[C@H](C)N(C)C(=O)[C@H](CCCNC(=N)N)NC(=O)[C@H](Cc2ccc(-c3ccccc3)cc2)NC(=O)[C@H](C(C)C)NC(=O)[C@H](Cc2c[nH]c3ccccc23)NC(=O)[C@H](CC(=O)O)NC(=O)[C@H](Cc2ccc(O)cc2)NC(=O)[C@H](Cc2ccccc2)NC(=O)CSC[C@@H](C(=O)NCC(N)=O)NC(=O)[C@H](CO)NC(=O)[C@H](CCC(=O)O)NC1=O (stereo partly drawn) [Example 1218] ({CH2CO}-FYDWV[Bip]R[NMeA][NMeF][ξR]LESCG-NH2; thioether N-14)	230 nM
CC(C)C[C@@H]1NC(=O)[C@H](CCCNC(=N)N)NC(=O)[C@H](Cc2ccccc2)N(C)C(=O)[C@H](C)N(C)C(=O)[C@H](CCCNC(=N)N)NC(=O)[C@H](Cc2ccc(-c3ccccc3)cc2)NC(=O)[C@H](C(C)C)NC(=O)[C@H](Cc2c[nH]c3ccccc23)NC(=O)[C@H](CC(=O)O)NC(=O)[C@H](Cc2ccc(O)cc2)NC(=O)[C@H](Cc2ccc(CN)cc2)NC(=O)CSC[C@@H](C(=O)NCC(N)=O)NC(=O)[C@H](CO)NC(=O)[C@H](C(C)C)NC1=O [Example 1256] ({CH2CO}-[Phe(4-CH2NH2)]YDWV[Bip]R[NMeA][NMeF]RLVSCG-NH2; thioether N-14)	340 nM
